Measured values as given in the supplement of paper PMC10307832.

Legend:
Experiment in all cases: relative viability (nuclei count vs DMSO), 5 days (fraction); higher = more cells survive
[1] = compound: C1COCCN1CC2=CC(=O)C(=CO2)OCCCCCSC3=C4C=CC(=CC4=NC=C3)C(F)(F)F [EHT 1864] + COc1cccc2cc(-c3nc([C@H]4CC[C@H](C(=O)O)CC4)n4ncnc(N)c34)[nH]c12 [OSI-027] (partner 0.5 µM)
In short: (§1)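 Lung cancer cell lines in 1536-well plates got either a single drug or a fixed anchor-drug dose together with five library-drug doses (not always all listed) in √10 steps, by pin tool, on the day after seeding. Nuclei were counted after 5 days, and relative viability is the treated-to-vehicle ratio of nuclei counts. Values are medians of duplicate plates.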

[2] = compound: C1COCCN1CC2=CC(=O)C(=CO2)OCCCCCSC3=C4C=CC(=CC4=NC=C3)C(F)(F)F [EHT 1864] + NC(=O)Nc1cc(-c2cccc(F)c2)sc1C(=O)N[C@H]1CCCNC1 [AZD7762] (partner 0.2 µM)
In short: as §1

[3] = compound: C1COCCN1CC2=CC(=O)C(=CO2)OCCCCCSC3=C4C=CC(=CC4=NC=C3)C(F)(F)F [EHT 1864] + COc1cc2c(Oc3ccc(NC(=O)C4(C(=O)Nc5ccc(F)cc5)CC4)cc3F)ccnc2cc1OCCCN1CCOCC1 [Foretinib] (partner 0.25 µM)
In short: as §1

[4] = compound: C1COCCN1CC2=CC(=O)C(=CO2)OCCCCCSC3=C4C=CC(=CC4=NC=C3)C(F)(F)F [EHT 1864] + Nc1nc2[nH]cc(CCc3ccc(C(=O)N[C@@H](CCC(=O)O)C(=O)O)cc3)c2c(=O)[nH]1 [Pemetrexed] (partner 0.2 µM)
In short: as §1

Cell Line	relative viability ([1]; first compound 0.04 µM)	relative viability ([1]; first compound 0.1265 µM)	relative viability ([1]; first compound 0.4 µM)	relative viability ([1]; first compound 1.265 µM)	relative viability ([1]; first compound 4 µM)	relative viability ([2]; first compound 0.04 µM)	relative viability ([2]; first compound 0.1265 µM)	relative viability ([2]; first compound 0.4 µM)	relative viability ([2]; first compound 1.265 µM)	relative viability ([2]; first compound 4 µM)	relative viability ([3]; first compound 0.04 µM)	relative viability ([3]; first compound 0.1265 µM)	relative viability ([3]; first compound 0.4 µM)	relative viability ([3]; first compound 1.265 µM)	relative viability ([3]; first compound 4 µM)	relative viability ([4]; first compound 0.04 µM)	relative viability ([4]; first compound 0.1265 µM)	relative viability ([4]; first compound 0.4 µM)	relative viability ([4]; first compound 1.265 µM)	relative viability ([4]; first compound 4 µM)
A-427	0.524	0.345	0.503	0.447	0.469	0.835	0.775	0.738	0.762	0.791	1.03	0.942	0.986	1.05	0.968	0.979	1.01	0.952	0.931	0.935
H3255	0.552	0.582	0.603	0.602	0.616	0.797	0.795	0.995	0.867	1.04	0.79	0.818	0.903	0.844	0.978	0.532	0.603	0.576	0.572	0.561
NCI-H1734	0.706		0.611	0.66	0.592	0.65	0.427	0.537	0.611	0.618	0.911		0.706	0.961	0.826	0.45	0.385	0.463	0.394	0.432
NCI-H1993	0.548		0.541	0.554	0.553	0.71		0.827	0.775	0.83	0.741		0.748	0.75	0.744	0.58		0.595	0.623	0.556
NCI-H1437	0.852	0.916	0.813	0.722	0.703	1.1	1.1	1.09	1.02	0.889	1.31	1.22	1.2	1.03	0.824	0.321	0.302	0.263	0.286	0.246
201T	0.762	0.549	0.623	0.572	0.744	0.578	0.575	0.61	0.594	0.652	0.964	1.05	1.16	0.99	1.08	0.346	0.326	0.351	0.266	0.291
ChaGo-K-1	0.512	0.476	0.7	0.562	0.517	0.881	0.834	0.956	0.871	0.907	0.858	0.888	0.809	0.895	0.814	0.261	0.27	0.25	0.264	0.256
LOU-NH91	0.721	0.572	0.768	0.777	0.66	0.746	0.67	0.759	0.735	0.755	0.956	0.874	0.922	0.96	0.814	0.347	0.382	0.396	0.421	0.391
HOP-62	0.783		0.851	0.825	0.907	0.584		0.466	0.485	0.794	1.02		1.03	0.991	1.13	0.438		0.269	0.388	0.314
NCI-H1915	0.657		0.641	0.599	0.545	0.728		0.681	0.711	0.719	1.07		1	1.07	1.08	0.474		0.52	0.5	0.477
NCI-H3122	0.922	0.594	0.952	0.896	0.956	0.882	0.808	0.911	0.985	0.878	0.938	0.983	0.961	0.982	0.885	0.189	0.179	0.206	0.202	0.185
NCI-H1651	0.704	0.675	0.75	0.647	0.69	0.396	0.439	0.469	0.482	0.556	0.836	0.757	0.845	0.691	0.827	0.529	0.662	0.565	0.553	0.55
NCI-H838	0.371	0.313	0.395	0.376	0.425	0.959	0.895	0.886	0.872	0.959	0.88	0.864	1.05	0.95	1.01	0.249	0.236	0.236	0.233	0.219
NCI-H596	0.716	0.651	0.803	0.572	0.529	1.21	1.04	1.1	1.04	1.46	0.836	0.701	0.752	0.745	0.821	0.554	0.513	0.447	0.575	0.468
NCI-H441	0.685	0.511	0.414	0.581	0.734	1.01		1.04	1.11	1.5	0.953	1.03	1	0.942	0.984	0.28		0.286	0.241	0.255
NCI-H650	0.53	0.354	0.546	0.531	0.49	0.994	0.612	1.13	1.1	1.06	0.99	0.859	0.97	1.03	0.99	0.975	0.75	0.968	0.947	0.927
NCI-H1793	0.226		0.313		0.262	0.609	0.458	0.496	0.193	0.298	0.604		0.667		0.789	0.674	0.699	0.929	0.814	0.828
